PubChem BioAssay AID2060905 (Molecular Pharmacology Branch, DTP, NCI, 2025)

Test system: 282377-053-R-J1-PDC complex spheroid viability
Test: Anticancer human tumor 282377-053-R-J1-PDC patient-derived colon adenocarcinoma cell line growth inhibition [RAS]
Conditions: for IC50: curve of first compound; for viability, T/C: stronger effect = lower value
Procedure, shortened: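 Tumour cells grown as complex spheroids with HUVEC endothelial cells and mesenchymal stem cells, treated with RAS pathway inhibitor combinations. Each agent spans half-log steps from near clinical Cmax, or 10 microM where Cmax is unknown.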

[1] = second compound 0.00316 µM, first compound 0.000949 µM
[2] = second compound 0.00316 µM, first compound 0.003 µM
[3] = second compound 0.00316 µM, first compound 0.00949 µM
[4] = second compound 0.00316 µM, first compound 0.03 µM
[5] = second compound 0.00316 µM, first compound 0.0949 µM
[6] = second compound 0.00316 µM, first compound 0.3 µM
[7] = second compound 0.01 µM, first compound 0.000949 µM
[8] = second compound 0.01 µM, first compound 0.003 µM
[9] = second compound 0.01 µM, first compound 0.00949 µM
[10] = second compound 0.01 µM, first compound 0.03 µM
[11] = second compound 0.01 µM, first compound 0.0949 µM
[12] = second compound 0.01 µM, first compound 0.3 µM
[13] = second compound 0.0316 µM, first compound 0.000949 µM
[14] = second compound 0.0316 µM, first compound 0.003 µM
[15] = second compound 0.0316 µM, first compound 0.00949 µM
[16] = second compound 0.0316 µM, first compound 0.03 µM
[17] = second compound 0.0316 µM, first compound 0.0949 µM
[18] = second compound 0.0316 µM, first compound 0.3 µM
[19] = second compound 0.1 µM, first compound 0.000949 µM
[20] = second compound 0.1 µM, first compound 0.003 µM
[21] = second compound 0.1 µM, first compound 0.00949 µM
[22] = second compound 0.1 µM, first compound 0.03 µM
[23] = second compound 0.1 µM, first compound 0.0949 µM
[24] = second compound 0.1 µM, first compound 0.3 µM
[25] = second compound 0.316 µM, first compound 0.000949 µM
[26] = second compound 0.316 µM, first compound 0.003 µM
[27] = second compound 0.316 µM, first compound 0.00949 µM
[28] = second compound 0.316 µM, first compound 0.03 µM
[29] = second compound 0.316 µM, first compound 0.0949 µM
[30] = second compound 0.316 µM, first compound 0.3 µM
[31] = second compound 1 µM, first compound 0.000949 µM
[32] = second compound 1 µM, first compound 0.003 µM
[33] = second compound 1 µM, first compound 0.00949 µM
[34] = second compound 1 µM, first compound 0.03 µM
[35] = second compound 1 µM, first compound 0.0949 µM
[36] = second compound 1 µM, first compound 0.3 µM
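Also: spheroids exposed to agents for seven days before readout.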
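For viability, T/C in this document: luminescence viability as percent of DMSO vehicle control wells.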

## CC1(C)CCC(Nc2ncc(C(F)(F)F)c(-c3c[nH]c4c(P(C)(C)=O)c(C#N)ccc34)n2)CN1 (stereo unspecified) + C=CC(=O)N1CCN(c2nc(OCC3CCCN3C)nc3c(F)c(-c4nc(N)cc(C)c4C(F)(F)F)c(Cl)cc23)C(C)C1
Second compound 0.00316 µM
  IC50: > 300 nM
Second compound 0.01 µM
  IC50: > 300 nM
Second compound 0.0316 µM
  IC50: > 300 nM
Second compound 0.1 µM
  IC50: > 300 nM
Second compound 0.316 µM
  IC50: > 300 nM
Second compound 1 µM
  IC50: > 300 nM
[1]
  viability, T/C: 114%
[2]
  viability, T/C: 120%
[3]
  viability, T/C: 79.9%
[4]
  viability, T/C: 51.3%
[5]
  viability, T/C: 61.1%
[6]
  viability, T/C: 55.6%
[7]
  viability, T/C: 123%
[8]
  viability, T/C: 88.7%
[9]
  viability, T/C: 85.1%
[10]
  viability, T/C: 64.5%
[11]
  viability, T/C: 58.8%
[12]
  viability, T/C: 56.1%
[13]
  viability, T/C: 91.7%
[14]
  viability, T/C: 90.8%
[15]
  viability, T/C: 72.3%
[16]
  viability, T/C: 59.6%
[17]
  viability, T/C: 64.8%
[18]
  viability, T/C: 56.1%
[19]
  viability, T/C: 105%
[20]
  viability, T/C: 101%
[21]
  viability, T/C: 91.3%
[22]
  viability, T/C: 66.3%
[23]
  viability, T/C: 73.1%
[24]
  viability, T/C: 61.8%
[25]
  viability, T/C: 90.2%
[26]
  viability, T/C: 102%
[27]
  viability, T/C: 87.9%
[28]
  viability, T/C: 65.1%
[29]
  viability, T/C: 58.5%
[30]
  viability, T/C: 67.1%
[31]
  viability, T/C: 92.9%
[32]
  viability, T/C: 112%
[33]
  viability, T/C: 86.8%
[34]
  viability, T/C: 61.6%
[35]
  viability, T/C: 67%
[36]
  viability, T/C: 71.8%

## CCc1c2c(nc3ccc(O)cc13)-c1cc3c(c(=O)n1C2)COC(=O)[C@]3(O)CC + C=CC(=O)N1CCN(c2nc(OCC3CCCN3C)nc3c(F)c(-c4nc(N)cc(C)c4C(F)(F)F)c(Cl)cc23)C(C)C1
Second compound 0.00316 µM
  IC50: > 300 nM
Second compound 0.01 µM
  IC50: > 300 nM
Second compound 0.0316 µM
  IC50: > 300 nM
Second compound 0.1 µM
  IC50: > 300 nM
Second compound 0.316 µM
  IC50: > 300 nM
Second compound 1 µM
  IC50: > 300 nM
[1]
  viability, T/C: 117%
[2]
  viability, T/C: 122%
[3]
  viability, T/C: 122%
[4]
  viability, T/C: 99.6%
[5]
  viability, T/C: 87.7%
[6]
  viability, T/C: 59%
[7]
  viability, T/C: 109%
[8]
  viability, T/C: 119%
[9]
  viability, T/C: 95.1%
[10]
  viability, T/C: 93.9%
[11]
  viability, T/C: 79.4%
[12]
  viability, T/C: 66.1%
[13]
  viability, T/C: 99.2%
[14]
  viability, T/C: 109%
[15]
  viability, T/C: 113%
[16]
  viability, T/C: 93.2%
[17]
  viability, T/C: 87%
[18]
  viability, T/C: 61.7%
[19]
  viability, T/C: 115%
[20]
  viability, T/C: 126%
[21]
  viability, T/C: 124%
[22]
  viability, T/C: 85.8%
[23]
  viability, T/C: 97.8%
[24]
  viability, T/C: 65.1%
[25]
  viability, T/C: 128%
[26]
  viability, T/C: 114%
[27]
  viability, T/C: 123%
[28]
  viability, T/C: 98.6%
[29]
  viability, T/C: 89.7%
[30]
  viability, T/C: 64.2%
[31]
  viability, T/C: 135%
[32]
  viability, T/C: 126%
[33]
  viability, T/C: 106%
[34]
  viability, T/C: 94.2%
[35]
  viability, T/C: 95.2%
[36]
  viability, T/C: 61.2%

## C=CC(=O)Nc1cc(Nc2nccc(-c3cn(C)c4ccccc34)n2)c(OC)cc1N(C)CCN(C)C + CCn1c(-c2cc(N3CCN(C)CC3)cnc2C(C)OC)c2c3cc(ccc31)-c1csc(n1)CC(NC(=O)C1CC1C)C(=O)N1CCCC(N1)C(=O)OCC(C)(C)C2
Second compound 0.000949 µM
  IC50: > 1000 nM
Second compound 0.003 µM
  IC50: > 1000 nM
Second compound 0.00949 µM
  IC50: > 1000 nM
Second compound 0.03 µM
  IC50: > 1000 nM
Second compound 0.0949 µM
  IC50: > 1000 nM
Second compound 0.3 µM
  IC50: > 1000 nM
Second compound 0.000949 µM, first compound 0.00316 µM
  viability, T/C: 96.5%
Second compound 0.000949 µM, first compound 0.01 µM
  viability, T/C: 109%
Second compound 0.000949 µM, first compound 0.0316 µM
  viability, T/C: 78%
Second compound 0.000949 µM, first compound 0.1 µM
  viability, T/C: 86.9%
Second compound 0.000949 µM, first compound 0.316 µM
  viability, T/C: 83.4%
Second compound 0.000949 µM, first compound 1 µM
  viability, T/C: 91.6%
Second compound 0.003 µM, first compound 0.00316 µM
  viability, T/C: 87.3%
Second compound 0.003 µM, first compound 0.01 µM
  viability, T/C: 106%
Second compound 0.003 µM, first compound 0.0316 µM
  viability, T/C: 89.9%
Second compound 0.003 µM, first compound 0.1 µM
  viability, T/C: 80.8%
Second compound 0.003 µM, first compound 0.316 µM
  viability, T/C: 83.6%
Second compound 0.003 µM, first compound 1 µM
  viability, T/C: 75.8%
Second compound 0.00949 µM, first compound 0.00316 µM
  viability, T/C: 102%
Second compound 0.00949 µM, first compound 0.01 µM
  viability, T/C: 90.8%
Second compound 0.00949 µM, first compound 0.0316 µM
  viability, T/C: 97.5%
Second compound 0.00949 µM, first compound 0.1 µM
  viability, T/C: 84.8%
Second compound 0.00949 µM, first compound 0.316 µM
  viability, T/C: 73.8%
Second compound 0.00949 µM, first compound 1 µM
  viability, T/C: 80.3%
Second compound 0.03 µM, first compound 0.00316 µM
  viability, T/C: 83%
Second compound 0.03 µM, first compound 0.01 µM
  viability, T/C: 97.4%
Second compound 0.03 µM, first compound 0.0316 µM
  viability, T/C: 116%
Second compound 0.03 µM, first compound 0.1 µM
  viability, T/C: 89.9%
Second compound 0.03 µM, first compound 0.316 µM
  viability, T/C: 85.6%
Second compound 0.03 µM, first compound 1 µM
  viability, T/C: 94.4%
Second compound 0.0949 µM, first compound 0.00316 µM
  viability, T/C: 95%
Second compound 0.0949 µM, first compound 0.01 µM
  viability, T/C: 92.5%
Second compound 0.0949 µM, first compound 0.0316 µM
  viability, T/C: 97.8%
Second compound 0.0949 µM, first compound 0.1 µM
  viability, T/C: 78.6%
Second compound 0.0949 µM, first compound 0.316 µM
  viability, T/C: 112%
Second compound 0.0949 µM, first compound 1 µM
  viability, T/C: 91.7%
Second compound 0.3 µM, first compound 0.00316 µM
  viability, T/C: 84.9%
Second compound 0.3 µM, first compound 0.01 µM
  viability, T/C: 97.2%
Second compound 0.3 µM, first compound 0.0316 µM
  viability, T/C: 92%
Second compound 0.3 µM, first compound 0.1 µM
  viability, T/C: 97.5%
Second compound 0.3 µM, first compound 0.316 µM
  viability, T/C: 98.6%
Second compound 0.3 µM, first compound 1 µM
  viability, T/C: 138%
